From patent US10045983B2, “Heteroaryl pyridone and aza-pyrodine compounds” (Genentech, Inc., priority 2011, dated 2018) come the findings set out here.

The assay in a line: CD69 Whole Blood Assay (CD69 Hu Blood FACS). Format: cell-based, human. The note with it: Lymphocyte; human whole blood, anti-IgM activated B lymphocytes, FACS; IC70; Table 1; read-out: CD69 Hu Blood FACS IC70. The source says:
A CD69 Whole Blood Assay can be conducted on Formula I compounds to determine the ability of compounds to inhibit the production of CD69 by B lymphocytes in human whole blood activated by crosslinking surface IgM with goat F(ab′)2 anti-human IgM (Example 907). CD69 is a type II C-type lectin involved in lymphocyte migration and cytokine secretion. CD69 expression represents one of the earliest available indicators of leukocyte activation and its rapid induction occurs through transcriptional activation (Vazquez et al (2009) Jour. of Immunology Published Oct. 19, 2009, doi:10.4049/jimmunol.0900839). Concentration-dependent inhibition of antigen receptor stimulation by selective Btk inhibitors induces cell surface expression of the lymphocyte activation marker CD69 (Honigberg et al (2010) Proc. Natl. Acad. Sci. 107(29):13075-13080). Thus, CD69 inhibition by selective Btk inhibitors may be correlated with therapeutic efficacy of certain B-cell disorders.
On to `C[C@H]1CN(C2COC2)CCN1c1ccc(Nc2cc(-c3ccnc(N4CCn5c(cc6c5CC(C)(C)C6)C4=O)c3CO)cn(C)c2=O)nc1` [Example 130, (3 S)-10-[4-[1-methyl-5-({5-[2-methyl 4-(oxetan-3-yl)piperazin-1-yl]pyridine-2-yl}amino)-6-oxo-1,6-dihydropyridin-3-yl]-3-(hydroxymethyl)pyridin-2-yl]-4,4-dimethyl-1,10-diazatricyclo[6.4.0.0^2,6]dodeca-2(6),7-dien-9-one], for which the IC70 worked out at 12 nM.

`CC[C@H]1CN(C2COC2)CCN1c1ccc(Nc2cc(-c3ccnc(N4CCn5c(cc6c5CCCC6)C4=O)c3CO)cn(C)c2=O)nc1` [Example 131, (S)-2-(4-(5-(5-(2-ethyl-4-(oxetan-3-yl)piperazin-1-yl)pyridin-2-ylamino)-1-methyl-6-oxo-1,6-dihydropyridin-3-yl)-3-(hydroxymethyl)pyridin-2-yl)-3,4,6,7,8,9-hexahydropyrazino[1,2-a]indol-1(2H)-one]: the IC70 amounted to 15.5 nM.

On to `Cn1nc(-c2ccnc(N3CCn4c(cc5c4CCCC5)C3=O)c2CO)cc(Nc2cc3n(n2)CCOC3)c1=O` [Example 132, 2-(4-(5-(6,7-Dihydro-4H-pyrazolo[5,1-c][1,4]oxazin-2-ylamino)-1-methyl-6-oxo-1,6-dihydropyridazin-3-yl)-3-(hydroxymethyl)pyridin-2-yl)-3,4,6,7,8,9-hexahydropyrazino[1,2-a]indol-1(2H)-one], for which the IC70 was 263 nM.

With `CN1CCn2nc(Nc3cc(-c4ccnc(N5CCn6c(cc7c6CCCC7)C5=O)c4CO)nn(C)c3=O)cc2C1` [Example 133, 2-(3-(Hydroxymethyl)-4-(1-methyl-5-(5-methyl-4,5,6,7-tetrahydropyrazolo[1,5-a]pyrazin-2-ylamino)-6-oxo-1,6-dihydropyridazin-3-yl)pyridin-2-yl)-3,4,6,7,8,9-hexahydropyrazino[1,2-a]indol-1(2H)-one], the IC70 was 227 nM.

Consider `Cn1cc(-c2ccnc(N3CCn4c5c(c(F)c4C3=O)CCCC5)c2CO)cc(Nc2ccc(N3CCN(C4COC4)CC3)cn2)c1=O` [Example 134, 10-Fluoro-2-(3-(hydroxymethyl)-4-(1-methyl-5-(5-(4-(oxetan-3-yl)piperazin-1-yl)pyridin-2-ylamino)-6-oxo-1,6-dihydropyridin-3-yl)pyridin-2-yl)-3,4,6,7,8,9-hexahydropyrazino[1,2-a]indol-1(2H)-one], for which the 70% effect concentration (IC70) amounted to 94.4 nM.

`CN1CCn2nc(Nc3cc(-c4ccnc(N5CCn6c7c(c(F)c6C5=O)CCCC7)c4CO)cn(C)c3=O)cc2C1` [Example 135, 10-Fluoro-2-(3-(hydroxymethyl)-4-(1-methyl-5-(5-methyl-4,5,6,7-tetrahydropyrazolo[1,5-a]pyrazin-2-ylamino)-6-oxo-1,6-dihydropyridin-3-yl)pyridin-2-yl)-3,4,6,7,8,9-hexahydropyrazino[1,2-a]indol-1(2H)-one]: the IC70 came out at 107 nM.

Take `C[C@H]1CN(C2COC2)CCN1c1ccc(Nc2cc(-c3ccnc(N4CCn5c6c(c(F)c5C4=O)CCCC6)c3CO)cn(C)c2=O)nc1` [Example 136, (S)-10-Fluoro-2-(3-(hydroxymethyl)-4-(1-methyl-5-(5-(2-methyl-4-(oxetan-3-yl)piperazin-1-yl)pyridin-2-ylamino)-6-oxo-1,6-dihydropyridin-3-yl)pyridin-2-yl)-3,4,6,7,8,9-hexahydropyrazino[1,2-a]indol-1(2H)-one]: the IC70 came to 30 nM.

On to `C[C@@H]1CN(C2COC2)CCN1c1ccc(Nc2cc(-c3ccnc(N4CCn5c(cc6c5CCCC6)C4=O)c3CO)cn(C)c2=O)nc1` [Example 137, (R)-2-(3-(hydroxymethyl)-4-(1-methyl-5-(5-(2-methyl-4-(oxetan-3-yl)piperazin-1-yl)pyridin-2-ylamino)-6-oxo-1,6-dihydropyridin-3-yl)pyridin-2-yl)-3,4,6,7,8,9-hexa-hydropyrazino[1,2-a]indol-1(2H)-one], for which the IC70 was determined as 64.6 nM.

A word on the IC70: it is the concentration at which the effect reaches the 70% level.
